US20090055945A1, “Method for Producing Nuclear-Transplanted Egg” (priority 2005, published 2009)

System: bovine reconstructed embryos
Test: Early embryonic development of bovine reconstructed embryos
Assay type: cell-based
Conditions: for Number of cleaved embryos / Cleavage rate (cleaved embryos to cultured embryos): 48 hours postactivation; for Number of embryos at the blastocyst stage: 168 hours postactivation
Procedure: Bovine ovaries collected from sacrificed cows at a local slaughterhouse were stored in physiological saline at 25° C. and transported to the laboratory within 6 to 8 hours after slaughter. Bovine oocytes were harvested by aspiration of follicular fluids from follicles with diameters of 2 to 5 mm on the surfaces of bovine ovaries using 21G injection needles (Terumo, Tokyo, Japan) and 10-ml syringes (Terumo). Only oocyte-cumulus cell complexes to which 2 to 4 layers of cumulus cells were attached were selected and collected from the harvested follicular fluids. The collected oocyte-cumulus cell complexes were introduced into drops of 50 μl maturation medium under mineral oil (Sigma, USA) and cultured for 21 hours at 39° C. under 5% CO2 and 95% air at saturation humidity. The maturation medium was prepared by adding 0.02 AU/ml of follicle-stimulating hormone (FSH, Antrin, Kawasaki Seiyaku, Kanagawa, Japan) and 1 μg/ml estradiol 17-β (Sigma) to 25 mM HEPES buffered TCM-199 (Earle's salts, Gibco, m-TCM199E) supplemented with 5% (v/v) new born calf serum (NBCS, Gibco, N.Y., USA) and 25 μg/ml of gentamicin solution (Sigma).
The oocyte-cumulus cell complexes matured for 21 hours were allowed to stand for 5 minutes in a solution containing 5% NBCS and 25 μg/ml gentamicin solution (Sigma) in 25 mM HEPES-buffered TCM-199 (Hank's salts, Gibco, m-TCM199H) containing 0.25% (w/v) hyaluronidase (Sigma). Then, the cumulus cells attached around the oocytes were fully removed by pipetting.
The oocytes from which the cumulus cells had been removed were transferred to m-TCM119H and only oocytes with the first polar bodies had been emitted were selected under an inverted microscope. Zonae pellucidae above each first polar bodies were incised using a fine glass needle for removing nuclei from the oocytes, and the oocytes were transferred to m-TCM119H supplemented with 5 μg/ml cytochalacin B (Sigma) and allowed to stand for 15 minutes. Each oocyte was held from the upside using the glass needle used for incising zona pellucida, and enucleation was carried out by removing the first polar body and the oocyte cytoplasm neighboring the first polar body corresponding to about 10 to 20% of the oocyte cytoplasm volume from the zona pellucida incision site. The removed oocyte cytoplasm was transferred to m-TCM199E containing 20 μg/ml of Hoechst 33342 (Sigma) and stained at 39° C. under 5% CO2 and 95% air at saturated humidity for 30 minutes, and the enucleation was confirmed by judging the presence of nucleus in the enucleated oocyte cytoplasm under UV irradiation.
Fibroblasts derived from an auricle of Japanese black cattle calves were used as donor cells for nuclear transfer. The donor cells were cultured to 80% confluency in Dulbecco's modified Eagle medium (DMEM, Nissui, Tokyo, Japan) supplemented with 10% (v/v) fetal bovine serum (FBS, Funakoshi, Tokyo, Japan). The culture medium was then exchanged for DMEM supplemented with 0.4% FBS, and the cells were cultured under serum-starvation conditions for 7 days. The cells cultured under serum-starvation conditions were isolated from the culture dishes using a 0.25% (w/v) solution of trypsin (Sigma) containing 0.04% (w/v) disodium dihydrogen ethylenediaminetetraacetic acid (EDTA, Nacalai Tesque, Kyoto, Japan). The cells were harvested by centrifugation in a centrifuge tube, and suspended in a phosphate buffered saline (PBS, Gibco) (−) solution containing 10% (w/v) polyvinylpyrrolidone (PVP, Nacalai Tesque). The isolated cells were aspirated into a micro-glass pipette for cell introduction, and introduced from the zona pellucida incision sites into the perivitelline spaces of the recipient enucleated oocytes. […]

[1] = TSA in the culture medium, 5-500 nM

SMILES: CC(/C=C/C(=O)NO)=C\[C@@H](C)C(=O)c1ccc(N(C)C)cc1 [TSA, trichostatin A]
- Cell number ± SEM of blastocysts (TSA 5 nM for 48 hours): 89 ± 6
- Number of cleaved embryos (TSA 5 nM for 48 hours, 106 cultured embryos): 85
- Cleavage rate (cleaved embryos to cultured embryos) (TSA 5 nM for 48 hours): 80%
- Number of embryos at the blastocyst stage (TSA 5 nM for 48 hours): 28
- Cell number ± SEM of blastocysts (TSA 50 nM for 48 hours): 83 ± 6
- Number of cleaved embryos (TSA 50 nM for 48 hours, 97 cultured embryos): 73
- Cleavage rate (cleaved embryos to cultured embryos) (TSA 50 nM for 48 hours): 75%
- Number of embryos at the blastocyst stage (TSA 50 nM for 48 hours): 29
- Cell number ± SEM of blastocysts (TSA 500 nM for 48 hours): 92 ± 8
- Number of cleaved embryos (TSA 500 nM for 48 hours, 97 cultured embryos): 73
- Cleavage rate (cleaved embryos to cultured embryos) (TSA 500 nM for 48 hours): 75%
- Number of embryos at the blastocyst stage (TSA 500 nM for 48 hours): 5
- increase in blastocyst development rate (TSA at a certain concentration for a certain period of time): about 2 fold
- influence on cell number of blastocysts [1]: did not influence
- influence on cleavage rate [1]: did not influence
